Results as given in patent US7671074B2, “Sulfonylguanidine compounds and pharmaceutical uses thereof” (Gruenenthal GmbH, priority 2000, dated 2010).
Like-named read-outs stand apart in the source and are kept apart here.

Tests used:
gabapentin binding site = experiment: Binding assay: displacement of gabapentin from its binding site; settings: for Percent inhibition: inhibition/displacement of gabapentin, concentration 10^−5 μM [sic]; for IC50: displacement of gabapentin from its binding site
Method: Gabapentin was used in a binding assay in order to check the binding and affinities of the selected compounds. The affinity of the compounds according to the invention was measured via the displacement of gabapentin from its binding site.

[1] = tested on: male Sprague-Dawley rats with L5/L6 spinal nerve ligatures; experiment: In vivo experiments according to Chung (spinal nerve ligation, tactile withdrawal threshold); set-up: species or system rat; settings: for ED50: Rattus norvegicus
Method: In male Sprague-Dawley rats spinal nerve ligatures were applied according to Kim and Chung (1992) to the left L5/L6 spinal nerves. At the same time spinal catheters were implanted according to Pogatzki et al. ^6 (2000). 4 to 6 days after the operation the tactile threshold baseline (withdrawal thresholds) was measured on the ipsilateral and contra lateral rear paw by an electronic vonFrey anaesthesiometer (IITC Life Science, USA). […] After the test and baseline measurement, gabapentin and substances according to the invention were administered. The tactile withdrawal thresholds were measured 30 minutes after administration. The results are expressed as ED50 and % maximal possible effect (% MPE; % of the maximal possible effect) on the ipsilateral side, in which the baseline is taken as 0% and the withdrawal threshold of a control group is taken as 100% MPE.

[2] = tested on: male albino mice (NMRI), formalin-induced nociception; experiment: Formalin test on mice (second phase); format: in vivo, mouse; settings: Mus musculus, iv, formalin test, i.v., read-out: ED50 value
Method: The investigations to determine the antinociceptive action of the compounds according to the invention were carried out by the formalin test on male albino mice (NMRI, 25-35 g, Iffa Credo, Belgium).
In the formalin test the first (early) phase (0-15 minutes after the formalin injection) and the second (late) phase (15-60 minutes after the formalin injection) differ (D. Dubuisson et al., Pain, Vol. 4, pp. 161-174 (1977)). The early phase, being a direct reaction to the formalin injection, constitutes a model for acute pain, whereas the late phase is regarded as a model for persistent (chronic) pain (T. J. Coderre et al., Pain, Vol. 52, pp. 259-285 (1993)).
The compounds according to the invention were investigated in the second phase of the formalin test in order to obtain information on the effects of substances in chronic/inflammatory pain. By means of a single subcutaneous formalin injection (20 μl, 1% aqueous solution) into the dorsal side of the right-hand rear paw, a nociceptive reaction was induced in unconstrained experimental animals, manifested in a noticeable licking and biting of the affected paw.
The nociceptive behavior for the test period in the second (late) phase of the formalin test was continuously monitored by observing the animals. The pain reaction was quantified by totaling the time in seconds during which the animals continued to lick and bite the affected paw during the investigation period. After injecting substances that have an antinociceptive effect in the formalin test, the aforedescribed behavior pattern of the animals is reduced or possibly even cancelled.
Corresponding to the substance tests, in which the animals had been injected with the test substance before formalin, the control animals were injected with a vehicle, i.e. solvent (e.g. 0.9% NaCl solution) before the formalin injection. […]
Based on the quantification of the pain reaction, the effect of the substance in the formalin test was determined as the change in the control in percentage terms. […]

Molecule `Cc1ccc(S(=O)(=O)/N=C(/N)NCc2ccco2)cc1.Cl` [Example 53, N-{amino[(furan-2-yl-methyl)-amino]-methylene}-4-methylbenzenesulfonamide] has a Percent inhibition (gabapentin binding site) of 26%.

In the case of `N/C(=N\S(=O)(=O)c1ccc(I)cc1)NCc1ccccn1` [Example 35, N-{amino[(pyridin-2-yl-methyl)-amino]-methylene}-4-iodobenzenesulfonamide], the IC50 (gabapentin binding site) is reported as 50 nM.

`CCCc1ccc(S(=O)(=O)/N=C(/N)NCc2ccco2)cc1` [Example 55, N-{amino[(furan-2-yl-methyl)-amino]-methylene}-4-propylbenzenesulfonamide] was tested, and the IC50 (gabapentin binding site) was 3200 nM.

`N/C(=N\S(=O)(=O)c1cccc2cccnc12)NCc1ccccn1` [Example 47, Quinoline-8-sulfonic acid amino-[(pyridin-2-yl-methyl)-amino]-methylene amide] gave an IC50 (gabapentin binding site) of 2800 nM.

Molecule `CC(C)c1ccc(S(=O)(=O)/N=C(/N)NCc2ccco2)cc1` [Example 54, N-{amino[(furan-2-yl-methyl)-amino]-methylene}-4-isopropylbenzenesulfonamide] has an IC50 (gabapentin binding site) of 3510 nM.

`CCCCc1ccc(S(=O)(=O)/N=C(\N)NCc2ccccn2)cc1` [Example 50, N-{amino[(pyridin-2-yl-methyl)-amino]-methylene}-4-butylbenzenesulfonamide] was tested, and the IC50 (gabapentin binding site) was 170 nM.

For `N/C(=N\S(=O)(=O)c1cccs1)NCc1ccccn1` [Example 46, Thiophene-2-sulfonic acid amino-[(pyridin-2-yl-methyl)-amino]-methylene amide], the Percent inhibition (gabapentin binding site) was 36%.

Molecule `CC(C)c1ccc(S(=O)(=O)/N=C(\N)NCc2ccccn2)cc1` [Example 34, N-{amino[(pyridin-2-yl-methyl)-amino]-methylene}-4-isopropylbenzenesulfonamide] has an IC50 (gabapentin binding site) of 33 nM.

`CCCCc1ccc(S(=O)(=O)/N=C(/N)NCc2ccco2)cc1.Cl` [Example 52, N-{amino[(furan-2-yl-methyl)-amino]-methylene}-4-butylbenzenesulfonamide] gave a Percent inhibition (gabapentin binding site) of 47%.

With `Cc1cc(C)c(S(=O)(=O)/N=C(\N)NCc2ccccn2)c(C)c1` [Example 41, N-{amino[(pyridin-2-yl-methyl)-amino]-methylene}-2,4,6-trimethylbenzenesulfonamide] the IC50 (gabapentin binding site) was 438 nM.

`Cc1cccc(S(=O)(=O)/N=C(\N)NCc2ccccn2)c1` [Example 45, N-{amino[(pyridin-2-yl-methyl)-amino]-methylene}-3-methylbenzenesulfonamide] was tested, and the Percent inhibition (gabapentin binding site) was 35%.

With `CCCc1ccc(S(=O)(=O)/N=C(\N)NCc2ccccn2)cc1` [Example 42, N-{amino[(pyridin-2-yl-methyl)-amino]-methylene}-4-propylbenzenesulfonamide] the IC50 (gabapentin binding site) was 27 nM.

Molecule `CC(C)(C)c1ccc(S(=O)(=O)/N=C(/N)NCc2cccs2)cc1` [Example 60, N-{amino[(thiophen-2-yl-methyl)-amino]-methylene}-4-tert.-butylbenzenesulfonamide] has an IC50 (gabapentin binding site) of 5690 nM.

`Cl.N/C(=N\S(=O)(=O)c1ccccc1)NCc1ccccn1` [Example 36, N-{amino[(pyridin-2-yl-methyl)-amino]-methylene}-benzenesulfonamide] was tested, and the Percent inhibition (gabapentin binding site) was 17%.

Molecule `CC(C)(C)c1ccc(S(=O)(=O)/N=C(/N)NCc2ncccn2)cc1.Cl` [Example 51] has a Percent inhibition (gabapentin binding site) of 5%.

`CCCCc1ccc(S(=O)(=O)/N=C(/N)NCc2cccs2)cc1.Cl` [Example 57, N-{amino[(thiophen-2-yl-methyl)-amino]-methylene}-4-butylbenzenesulfonamide] gave a Percent inhibition (gabapentin binding site) of 41%.

For `N/C(=N\S(=O)(=O)c1ccc(Br)cc1)NCc1ccccn1` [Example 32, N-{amino[(pyridin-2-yl-methyl)-amino]-methylene}-4-bromobenzenesulfonamide], the IC50 (gabapentin binding site) was 218 nM.

For `NCC1(CC(=O)O)CCCCC1` [gabapentin, reference compound], the ED50 ([1]; 0.5 h) was 92.6 mg/kg and the ED50 [2] was 79 mg/kg.

Molecule `Cl.N/C(=N\S(=O)(=O)c1ccc(F)cc1)NCc1ccccn1` [Example 40, N-{amino[(pyridin-2-yl-methyl)-amino]-methylene}-4-fluorobenzenesulfonamide] has a Percent inhibition (gabapentin binding site) of 21%.

Work on `Cc1c(S(=O)(=O)/N=C(\N)NCc2ccccn2)sc2ccc(Cl)cc12` [Example 48, 5-chloro-3-methylbenzo[b]thiophene-2-sulfonic acid amino-[(pyridin-2-yl-methyl)-amino]-methylene amide] yielded an IC50 (gabapentin binding site) of 136 nM.

With `CC(C)(C)c1ccc(S(=O)(=O)/N=C(/N)NCc2ccco2)cc1.Cl` [Example 56, N-{amino[(furan-2-yl-methyl)-amino]-methylene}-4-tert.-butylbenzenesulfonamide] the Percent inhibition (gabapentin binding site) was 49%.

`N/C(=N\S(=O)(=O)c1ccc(Cl)c(Cl)c1)NCc1ccccn1` [Example 33, N-{amino[(pyridin-2-yl-methyl)-amino]-methylene}-3,4-dichlorobenzenesulfonamide] showed an IC50 (gabapentin binding site) of 1100 nM.

With `Cc1ccc(S(=O)(=O)/N=C(\N)NCc2ccccn2)cc1` [Example 1] the ED50 ([1]; 0.5 h, rats, Chung model, tactile withdrawal thresholds 30 minutes after administration, ipsilateral side, read-out: ED50) was about 25 mg/kg, the ED50 ([1]; read-out:, table title: Analgesia testing in rats according to Chung, further investigation) was 10 to 20 mg/kg and the “superiority to gabapentin (factor)” value ([1]; rats, Chung model, ED50 compared with gabapentin) was 4. The “effect compared with gabapentin” value ([1]; rats, Chung test, further investigation, result in words) was “superior in their effect to gabapentin”, the “effect in the Chung test” value ([1]; rats, further investigation, result in words) was “show an effect” and the IC50 (gabapentin binding site) was 421 nM. The Percent inhibition (gabapentin binding site) was 82%.

`CCCc1ccc(S(=O)(=O)/N=C(/N)NCc2cccs2)cc1` [Example 58, N-{amino[(thiophen-2-yl-methyl)-amino]-methylene}-4-propylbenzenesulfonamide] showed an IC50 (gabapentin binding site) of 1820 nM.

`Cc1ccc(S(=O)(=O)/N=C(/N)NCc2cccs2)cc1.Cl` [Example 62, N-{amino[(thiophen-2-yl-methyl)-amino]-methylene}-4-methylbenzenesulfonamide] was tested, and the Percent inhibition (gabapentin binding site) was 29%.

`Cl.N/C(=N/S(=O)(=O)c1ccc(Cl)cc1)NCc1ccco1` [Example 63, N-{amino[(furan-2-yl-methyl)-amino]-methylene}-4-chlorobenzenesulfonamide] showed a Percent inhibition (gabapentin binding site) of 23.5%.

Work on `CC(C)(C)c1ccc(S(=O)(=O)/N=C(/N)NCc2ccccn2)cc1` [Example 49, N-{amino[(pyridin-2-yl-methyl)-amino]-methylene}-4-tert.-butylbenzenesulfonamide] yielded an IC50 (gabapentin binding site) of 90 nM.

In the case of `N/C(=N\S(=O)(=O)c1cccc2ccccc12)NCc1ccccn1` [Example 44, Naphthalene-1-sulfonic acid amino-[(pyridin-2-yl-methyl)-amino]-methylene amide], the IC50 (gabapentin binding site) is reported as 5300 nM.

Work on `CC(=O)Nc1ccc(S(=O)(=O)/N=C(\N)NCc2ccccn2)cc1.Cl` [Example 39, N-[4-({amino-[(pyridin-2-yl-methyl)-amino]-methylene}-sulfamoyl)-phenyl]-acetamide] yielded a Percent inhibition (gabapentin binding site) of 27%.

With `Cc1ccc(S(=O)(=O)/N=C(\N)NCc2ccccc2)cc1` [Example 2, N-[amino-(benzylaminomethylene)]-4-methylbenzene-sulfonamide] the Percent inhibition (gabapentin binding site) was 69.7%.

`CC(C)c1ccc(S(=O)(=O)/N=C(/N)NCc2cccs2)cc1` [Example 59, N-{amino[(thiophen-2-yl-methyl)-amino]-methylene}-4-isopropylbenzenesulfonamide] showed an IC50 (gabapentin binding site) of 970 nM.

For `N/C(=N\S(=O)(=O)c1ccc2ccccc2c1)NCc1ccccn1` [Example 37, Naphthalene-2-sulfonic acid amino-[(pyridin-2-yl-methyl)-amino]-methylene amide], the IC50 (gabapentin binding site) was 122 nM.

Molecule `Cl.N/C(=N/S(=O)(=O)c1ccc(Cl)cc1)NCc1cccs1` [Example 61, N-{amino[(thiophen-2-yl-methyl)-amino]-methylene}-4-chlorobenzenesulfonamide] has a Percent inhibition (gabapentin binding site) of 24%.

With `COc1ccc(S(=O)(=O)/N=C(\N)NCc2ccccn2)cc1` [Example 43, N-{amino[(pyridin-2-yl-methyl)-amino]-methylene}-4-methoxybenzenesulfonamide] the IC50 (gabapentin binding site) was 634 nM.
